2 compounds from patent publication EP1257552B1, “XANTHINE DERIVATIVES, INTERMEDIATES AND USE FOR TREATING OSTEOPOROSIS” (Aventis Pharma S.A., priority 2000, dated 2001) can be followed below.

Common to all, as to type: in vivo
One data set relates to OS TIBIA. Briefly: Bone mineral density (DEXA) of the tibia in the ovariectomised rat osteopenia model, preventive treatment. To be noted: once daily, 5 days/week for 4 weeks, (BMD treated - BMD OVX)/(BMD SHAM - BMD OVX) x 100. How it is done: (§1) L'impact osseux de ces dérivés xanthine a été évalué sur un modèle d'ostéopénie, la rate ovariectomisée à l'âge de 3 mois, afin de déterminer ses effets sur la masse osseuse, et sur l'activité de formation et de résorption osseuse. Les animaux sont traités en préventif.
(§2) Sur ce modèle d'ostéopénie l'effet de ces dérivés xanthine est comparé à celui de la PTH • Produit à tester : composé de l'exemple 1 • véhicule(s) : méthylcellulose 0,5 % ou sérum physiologique • dose(s) : 10 mg/kg pour le produit. la PTH est administrée à la dose de 10 µg ou 25 µg/kg/j par voie sous cutanée • nombre d'administrations : une fois/jour; 5 jours/semaine pendant 4 semaines • voie d'administration : voie orale pour le produit. La PTH est administrée par voie sous cutanée • volume : 1 ml/kg p o et s c • délai entre l'injection et le sacrifice : 24 heures • nombre d'administrations : 20
(§3) Des rats femelles âgées de 3 mois et pesant environ 250-300 g sont ovariectomisées sous anesthésie à l'Imalgène 1000, à la dose de 100 mg/kg par voie intrapéritonéale (i.p) et sous un volume de 1 ml/kg. Ils reçoivent également du Nembutal (3 mg/kg i.p. sous un volume de 0,3 ml/kg). Les animaux sont répartis en groupes de 8 rats. Après incision latérale, les plans cutanés et musculaires sont sectionnés. L'exérèse de chaque ovaire se fait après ligature de l'oviducte. Les rats "SHAM" sont anesthésiés dans les mêmes conditions. Après incision des plans cutanés et musculaires, chaque ovaire est exposé puis replacé in situ.
(§4) Les effets des produits sont déterminés après un traitement préventif. Les traitements débutent 24 heures après ovariectomie. Les animaux sont traités pendant 4 semaines, et se répartissent de la façon suivante : • un groupe témoin Sham recevant le ou les véhicules • un groupe témoin OVX recevant le ou les véhicules • OVX + dérivé xanthine • OVX + PTH
La masse osseuse (BMD ou Bone Mineral Density = densité minérale osseuse) est mesurée par absorptiométrie biphotonique à rayons X à double énergie (DEXA). Les mesures sont réalisées sur les os excisés et débarrassés de tous les tissus mous. […]

In a further data set the test system is UTERUS. As to the kind of experiment: Uterus weight in the ovariectomised rat osteopenia model. To be noted: 4 weeks, weight increase in % of uterus weight of OVX animals receiving solvent only. The protocol: as §1, §2, §3, §4
Les utérus sont prélevés. Ces derniers sont pesés. L'augmentation du poids est exprimée, en % du poids de l'utérus des animaux ovariectomisés ne recevant que le solvant. • au niveau osseux : […]

For a further data set, the system named is Cholestérol. Briefly: Serum cholesterol level in the ovariectomised rat osteopenia model. To be noted: 4 weeks, decrease of serum cholesterol in % versus OVX animals receiving solvent only. The protocol:
as §1, §2, §3, §4
Au terme des 4 semaines de traitement, les animaux sont décapités par guillotine. Les sérums recueillis après centrifugation sont conservés à -20°C. […]

For the compound `O=c1c2[nH]cnc2n(-c2ccccc2)c(=O)n1Cc1ccncc1` [ex 1, chlorhydratede 3,7-dihydro-3-phényl-1-(4-pyridinylméthyl)-1H-purine-2,6-dione], the “OS TIBIA Densité %” value in the data set with OS TIBIA (10 mg/kg po) was 60%. Also, the “UTERUS Poids %” value with UTERUS (10 mg/kg po) turned out to be 15%. In addition, the Cholestérol % entry with Cholestérol (10 mg/kg po) is reported as “Pas d'effet”.
As to PTH, the “OS TIBIA Densité %” value is given as 69% with OS TIBIA (10 µg/kg sc) and 100% in the data set on OS TIBIA (25 µg/kg sc). The “UTERUS Poids %” value with UTERUS (10 µg/kg sc) is given as “Pas d'effet”; in the data set with UTERUS (25 µg/kg sc) it was 9%. Further, the Cholestérol % entry with Cholestérol (10 µg/kg sc) and in the data set on Cholestérol (25 µg/kg sc) was “Pas d'effet” each time.
